Starred links: 1 amine or outer side, 2 acyl side, 3 side chain; linkers in the order of their positions; H or OH if unused. Positions of bridges follow the written chain, without caps; N, C: chain ends. Non-standard residues stand in square brackets, D forms with d. Residues, ends and D or L forms follow the SMILES beside them. *: point of attachment. Arg(Nω-CO) = N/C(=N\C(=O)[*:3])NCCC[C@H](N[*:1])C(=O)[*:2]; Ethylenediamine = C(CN[*:2])N[*:1]; Propionyl = CCC(=O)*
Tests used:
[1] = molecular target: T1, Neuropeptide Y receptor type 2 (Homo sapiens, UniProt P49146); test: Displacement of [3H]propionyl-pNPY from human Y2R expressed in CHO cells; type: cell-based
T1 sequence (P49146 whole entry): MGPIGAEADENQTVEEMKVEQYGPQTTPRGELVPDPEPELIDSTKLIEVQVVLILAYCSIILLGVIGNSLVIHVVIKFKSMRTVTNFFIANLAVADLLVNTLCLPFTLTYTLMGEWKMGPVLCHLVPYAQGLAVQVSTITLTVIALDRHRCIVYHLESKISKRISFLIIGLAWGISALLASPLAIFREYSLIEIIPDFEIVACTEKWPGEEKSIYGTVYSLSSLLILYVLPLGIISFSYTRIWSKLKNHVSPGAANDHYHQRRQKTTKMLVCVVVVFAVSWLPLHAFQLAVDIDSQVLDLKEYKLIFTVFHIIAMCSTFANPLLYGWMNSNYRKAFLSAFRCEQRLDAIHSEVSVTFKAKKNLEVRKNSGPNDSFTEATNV

[2] = molecular target: T2, Neuropeptide Y receptor type 4 (Homo sapiens, UniProt P50391); test: Agonist activity at human Y4R expressed in HEK293T cells by miniGsi assay relative to control; type: functional, cell-based; details: filed as agonist
[3] = molecular target: T2, Neuropeptide Y receptor type 4; test: Agonist activity at human Y4R expressed in CHO cells co-expressing Gqi5-mtAEQ by calcium2+ aequorin assay relative to control; type: functional, cell-based; details: filed as agonist
[4] = molecular target: T2, Neuropeptide Y receptor type 4; test: Displacement of [3H]UR-KK200 from human Y4R expressed in CHO cells co-expressing Gqi5-mtAEQ; type: cell-based
[5] = molecular target: T3, Neuropeptide Y receptor type 1 (Homo sapiens, UniProt P25929); test: Displacement of [3H]UR-MK299 from human Y1R expressed in SK-N-MC cells; type: cell-based
T3 sequence (P25929 whole entry): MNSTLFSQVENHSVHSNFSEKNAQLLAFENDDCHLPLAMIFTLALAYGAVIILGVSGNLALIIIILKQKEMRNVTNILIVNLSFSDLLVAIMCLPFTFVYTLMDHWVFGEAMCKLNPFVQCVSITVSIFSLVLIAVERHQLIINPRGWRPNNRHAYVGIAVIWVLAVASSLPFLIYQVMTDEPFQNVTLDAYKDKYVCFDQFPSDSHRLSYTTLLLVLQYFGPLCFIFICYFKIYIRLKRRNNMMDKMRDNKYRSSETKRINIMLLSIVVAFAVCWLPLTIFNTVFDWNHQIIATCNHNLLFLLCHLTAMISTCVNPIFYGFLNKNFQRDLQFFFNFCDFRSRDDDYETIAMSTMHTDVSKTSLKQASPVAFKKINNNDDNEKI

[6] = molecular target: T2, Neuropeptide Y receptor type 4; test: Agonist activity at human Y4R expressed in CHO cells co-expressing Gqi5-mtAEQ by calcium2+ aequorin assay; type: functional, cell-based
[7] = molecular target: T4, Neuropeptide Y receptor type 5 (Homo sapiens, UniProt Q15761); test: Displacement of [3H]propionyl-pNPY from human Y5R expressed in HEC-1B cells; type: cell-based, HEC-1B cell line
T4 sequence (Q15761 whole entry): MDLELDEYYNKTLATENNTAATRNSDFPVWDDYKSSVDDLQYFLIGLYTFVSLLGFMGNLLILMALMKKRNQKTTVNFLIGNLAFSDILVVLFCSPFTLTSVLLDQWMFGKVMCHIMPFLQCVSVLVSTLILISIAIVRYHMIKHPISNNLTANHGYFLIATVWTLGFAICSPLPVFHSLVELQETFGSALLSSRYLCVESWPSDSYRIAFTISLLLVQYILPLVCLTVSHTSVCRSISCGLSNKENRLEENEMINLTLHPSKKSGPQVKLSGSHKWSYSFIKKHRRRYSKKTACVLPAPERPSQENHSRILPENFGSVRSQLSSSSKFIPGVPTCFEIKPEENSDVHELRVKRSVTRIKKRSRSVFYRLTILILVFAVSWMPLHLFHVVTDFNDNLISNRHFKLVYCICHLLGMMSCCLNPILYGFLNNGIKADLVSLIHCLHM

[8] = molecular target: T2, Neuropeptide Y receptor type 4; test: Agonist activity at human Y4R expressed in HEK293T cells incubated for 60 mins by cAMP CAMYEN assay; type: functional, cell-based
[9] = molecular target: T2, Neuropeptide Y receptor type 4; test: Agonist activity at human Y4R expressed in HEK293T cells by miniGsi assay; type: functional, cell-based
[10] = molecular target: T2, Neuropeptide Y receptor type 4; test: Agonist activity at human Y4R expressed in HEK293T cells incubated for 60 mins by cAMP CAMYEN assay relative to control; type: functional, cell-based; details: filed as agonist
[11] = molecular target: T2, Neuropeptide Y receptor type 4; test: (§1) Displacement of [3H]-(9S,12S,15S,19R,E)-4-amino-N-((S)-1-(((S)-1-(((S)-1-amino-3-(4-hydroxyphenyl)-1-oxopropan-2-yl)amino)-5-guanidino-1-oxopentan-2-yl)amino)-4-methyl-1-oxopentan-2-yl)-15-(3-guanidinopropyl)-12-(4-hydroxybenzyl)-2,11,14,17,20-pentaoxo-19-(4-(propanamido-2,3-t2)butanamido)-1,3,5,10,13,16,21-heptaazacyclopentacos-3-ene-9-carboxamide from human Y4R expressed in CHO cells coexpressing Gqi5-mtAEQ under isotonic sodium containing buffer condition; type: cell-based
[12] = molecular target: T2, Neuropeptide Y receptor type 4; test: as §1, with “hypotonic” for “isotonic”, “free” for “containing”; type: cell-based

T2 sequence (P50391 whole entry): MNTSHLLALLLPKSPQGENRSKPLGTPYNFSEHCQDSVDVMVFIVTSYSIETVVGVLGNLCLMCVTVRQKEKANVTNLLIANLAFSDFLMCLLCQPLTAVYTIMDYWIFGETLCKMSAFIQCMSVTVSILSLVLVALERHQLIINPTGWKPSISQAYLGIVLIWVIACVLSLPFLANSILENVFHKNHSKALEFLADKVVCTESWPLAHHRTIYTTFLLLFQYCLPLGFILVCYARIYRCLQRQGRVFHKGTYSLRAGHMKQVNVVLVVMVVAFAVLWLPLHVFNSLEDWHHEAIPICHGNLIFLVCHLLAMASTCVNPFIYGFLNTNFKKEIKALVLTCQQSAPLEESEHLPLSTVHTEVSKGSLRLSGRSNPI

Row | Ki ([1]; read-out: pKi (converted)) [nM] | Emax [2] [%] | Emax [3] [%] | Ki ([4]; read-out: Ki) [nM] | Ki ([5]; read-out: pKi (converted)) [nM] | Ki ([5]; sk-n-mc, read-out: Ki) [nM] | EC50 ([6]; read-out: EC50) [nM] | Ki ([7]; hec-1b cell line, read-out: Ki) [nM] | Ki ([7]; read-out: pKi (converted)) [nM] | EC50 ([8]; read-out: EC50) [nM] | EC50 [9] [nM] | Emax [10] [%] | Ki ([1]; cho, read-out: Ki) [nM] | EC50 ([6]; read-out: pEC50 (converted)) [nM] | Structure (SMILES) | other results
1 | > 3160 | 64 | 70 | 0.12 | > 1000 | > 1000 | 22 | > 1000 | > 1000 | 0.11 | 2.6 | 81 | – | – | CCC(=O)N[C@@H]1CC(=O)NCCCCNC(=O)/N=C(\N)NCCC[C@@H](C(=O)N[C@@H](CC(C)C)C(=O)N[C@@H](CCCNC(=N)N)C(=O)N[C@@H](Cc2ccc(O)cc2)C(N)=O)NC(=O)[C@H](Cc2ccc(O)cc2)NC(=O)[C@H](CCCNC(=N)N)NC1=O | Ki ([1]; read-out: Ki): > 3000 nM; Ki ([4]; read-out: pKi (converted)): 0.11 nM
2 | > 10000 | 59 | 85 | 0.026 | > 1000 | > 1000 | 5 | > 1000 | > 1000 | – | 1.1 | – | > 10000 | – | CC(C)C[C@H](NC(=O)[C@@H]1CCCN/C(N)=N/C(=O)NCCCCNC(=O)[C@@H](N)CC(=O)N[C@@H](CCCNC(=N)N)C(=O)N[C@@H](Cc2ccc(O)cc2)C(=O)N1)C(=O)N[C@@H](CCCNC(=N)N)C(=O)N[C@@H](Cc1ccc(O)cc1)C(N)=O | Ki ([4]; read-out: pKi (converted)): 0.0245 nM
3 | 912 | 62 | 69 | 0.093 | > 1000 | > 1000 | 18 | > 1000 | > 1000 | – | 2.5 | – | – | – | CC(C)C[C@H](NC(=O)[C@@H]1CCCN/C(N)=N/C(=O)NCCCCNC(=O)[C@H](NC(=O)CCCN)CC(=O)N[C@@H](CCCNC(=N)N)C(=O)N[C@@H](Cc2ccc(O)cc2)C(=O)N1)C(=O)N[C@@H](CCCNC(=N)N)C(=O)N[C@@H](Cc1ccc(O)cc1)C(N)=O | Ki ([1]; read-out: Ki): > 948 nM; Ki ([4]; read-out: pKi (converted)): 0.0912 nM
4 | – | – | 100 | – | – | – | – | – | – | 0.17 | – | 113 | – | – | CC(C)C[C@H](NC(=O)[C@@H]1CCCNC(=N)NC(=O)NCCCCNC(=O)CCC(=O)N[C@@H](CCCNC(=N)N)C(=O)N[C@@H](Cc2ccc(O)cc2)C(=O)N1)C(=O)N[C@@H](CCCNC(=N)N)C(=O)N[C@@H](Cc1ccc(O)cc1)C(N)=O | Ki ([11]; read-out: Ki): 0.076 nM; Ki ([11]; read-out: pKi (converted)): 0.0741 nM; Ki ([12]; read-out: Ki): 0.011 nM; Ki ([12]; read-out: pKi (converted)): 0.00912 nM; EC50 ([8]; read-out: pEC50 (converted)): 0.162 nM
5 | > 10000 | 67 | 65 | 0.17 | > 1000 | > 1000 | 60 | > 1000 | > 1000 | – | 10 | – | > 10000 | – | CC(C)C[C@H](NC(=O)[C@@H]1CCCN/C(N)=N/C(=O)NCCNC(=O)CC[C@H](N)C(=O)N[C@@H](CCCNC(=N)N)C(=O)N[C@@H](Cc2ccc(O)cc2)C(=O)N1)C(=O)N[C@@H](CCCNC(=N)N)C(=O)N[C@@H](Cc1ccc(O)cc1)C(N)=O (H-ERY[Arg(Nω-CO)]LRY-NH2; linker 1-4 via Ethylenediamine) | –
6 | > 10000 | 51 | 74 | 0.066 | > 1000 | > 1000 | 9 | > 1000 | > 1000 | 0.063 | 1.6 | 85 | > 10000 | 6.31 | CCC(=O)N[C@@H]1CC(=O)N[C@@H](CCCNC(=N)N)C(=O)N[C@@H](Cc2ccc(O)cc2)C(=O)N[C@H](C(=O)N[C@@H](CC(C)C)C(=O)N[C@@H](CCCNC(=N)N)C(=O)N[C@@H](Cc2ccc(O)cc2)C(N)=O)CCCN/C(N)=N/C(=O)NCCCCNC1=O | EC50 ([8]; read-out: pEC50 (converted)): 0.0501 nM
7 | > 3160 | 70 | 66 | 0.26 | > 1000 | > 1000 | 71 | > 1000 | > 1000 | 0.41 | 19 | 86 | – | – | CCC(=O)N[C@H]1CCC(=O)NCCNC(=O)/N=C(\N)NCCC[C@@H](C(=O)N[C@@H](CC(C)C)C(=O)N[C@@H](CCCNC(=N)N)C(=O)N[C@@H](Cc2ccc(O)cc2)C(N)=O)NC(=O)[C@H](Cc2ccc(O)cc2)NC(=O)[C@H](CCCNC(=N)N)NC1=O (Propionyl-ERY[Arg(Nω-CO)]LRY-NH2; linker 1-4 via Ethylenediamine) | Ki ([1]; read-out: Ki): > 3000 nM
8 | > 10000 | 56 | 79 | 0.041 | > 1000 | > 1000 | 8 | > 1000 | > 1000 | – | 1.1 | – | > 10000 | – | CC(C)C[C@H](NC(=O)[C@@H]1CCCN/C(N)=N/C(=O)NCCCCNC(=O)[C@H](N)CC(=O)N[C@@H](CCCNC(=N)N)C(=O)N[C@@H](Cc2ccc(O)cc2)C(=O)N1)C(=O)N[C@@H](CCCNC(=N)N)C(=O)N[C@@H](Cc1ccc(O)cc1)C(N)=O | –
9 | > 10000 | 68 | 63 | 0.031 | > 1000 | > 1000 | 11 | > 1000 | > 1000 | – | 0.89 | – | > 10000 | – | CC(C)C[C@H](NC(=O)[C@@H]1CCCN/C(N)=N/C(=O)NCCCCNC(=O)C[C@@H](N)C(=O)N[C@@H](CCCNC(=N)N)C(=O)N[C@@H](Cc2ccc(O)cc2)C(=O)N1)C(=O)N[C@@H](CCCNC(=N)N)C(=O)N[C@@H](Cc1ccc(O)cc1)C(N)=O | –
10 | > 10000 | 58 | 80 | 0.15 | > 1000 | > 1000 | 24 | > 1000 | > 1000 | 0.13 | 3.8 | 82 | > 10000 | 22.4 | CCC(=O)N[C@H]1CC(=O)N[C@@H](CCCNC(=N)N)C(=O)N[C@@H](Cc2ccc(O)cc2)C(=O)N[C@H](C(=O)N[C@@H](CC(C)C)C(=O)N[C@@H](CCCNC(=N)N)C(=O)N[C@@H](Cc2ccc(O)cc2)C(N)=O)CCCN/C(N)=N/C(=O)NCCCCNC1=O | –
11 | > 10000 | 46 | 64 | 0.11 | > 1000 | > 1000 | 23 | > 1000 | > 1000 | 0.2 | 8.1 | 83 | > 10000 | 20 | CCC(=O)N[C@H]1CC(=O)NCCCCNC(=O)/N=C(\N)NCCC[C@@H](C(=O)N[C@@H](CC(C)C)C(=O)N[C@@H](CCCNC(=N)N)C(=O)N[C@@H](Cc2ccc(O)cc2)C(N)=O)NC(=O)[C@H](Cc2ccc(O)cc2)NC(=O)[C@H](CCCNC(=N)N)NC1=O | –
12 | > 10000 | 55 | 70 | 0.33 | > 3160 | – | 19 | > 1000 | > 1000 | – | 4.7 | – | > 10000 | 13.2 | CC(C)C[C@H](NC(=O)[C@@H]1CCCN/C(N)=N/C(=O)NCCCCNC(=O)C[C@H](N)C(=O)N[C@@H](CCCNC(=N)N)C(=O)N[C@@H](Cc2ccc(O)cc2)C(=O)N1)C(=O)N[C@@H](CCCNC(=N)N)C(=O)N[C@@H](Cc1ccc(O)cc1)C(N)=O | Ki ([5]; read-out: Ki): > 3000 nM
